Test results: PubChem BioAssay (NCI)
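Method: 48-hour compound exposure of cells in 96-well plates, five concentrations, linear interpolation of endpoints. Definition used: TGI = concentration required for complete inhibition of growth.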

Legend:
Assay in all cases: DTP human tumour cell line panel, 48 h
SNB-19 CNS = tested on: SNB-19 CNS
SK-OV-3 ovarian = tested on: SK-OV-3 ovarian
OVCAR-3 ovarian = tested on: OVCAR-3 ovarian
UO-31 renal = tested on: UO-31 renal
CAKI-1 renal = tested on: CAKI-1 renal
SF-539 CNS = tested on: SF-539 CNS
NCI/ADR-RES ovarian = tested on: NCI/ADR-RES ovarian
UACC-257 melanoma = tested on: UACC-257 melanoma
A498 renal = tested on: A498 renal
RPMI-8226 leukemia = tested on: RPMI-8226 leukemia
LOX IMVI melanoma = tested on: LOX IMVI melanoma
U251 CNS = tested on: U251 CNS
T-47D breast = tested on: T-47D breast
MOLT-4 leukemia = tested on: MOLT-4 leukemia
SK-MEL-28 melanoma = tested on: SK-MEL-28 melanoma
SF-295 CNS = tested on: SF-295 CNS
MCF7 breast = tested on: MCF7 breast
M14 melanoma = tested on: M14 melanoma
COLO 205 colon = tested on: COLO 205 colon
SW-620 colon = tested on: SW-620 colon
MDA-N = tested on: MDA-N
RXF 393 renal = tested on: RXF 393 renal
OVCAR-8 ovarian = tested on: OVCAR-8 ovarian
HCT-116 colon = tested on: HCT-116 colon
NCI-H226 lung = tested on: NCI-H226 lung
KM12 colon = tested on: KM12 colon
HT29 colon = tested on: HT29 colon
UACC-62 melanoma = tested on: UACC-62 melanoma
786-0 renal = tested on: 786-0 renal
CCRF-CEM leukemia = tested on: CCRF-CEM leukemia
SN12C renal = tested on: SN12C renal
PC-3 prostate = tested on: PC-3 prostate
BT-549 breast = tested on: BT-549 breast
HL-60(TB) leukemia = tested on: HL-60(TB) leukemia
HS 578T breast = tested on: HS 578T breast
OVCAR-4 ovarian = tested on: OVCAR-4 ovarian
DU-145 prostate = tested on: DU-145 prostate
SR leukemia = tested on: SR leukemia
ACHN renal = tested on: ACHN renal
HCT-15 colon = tested on: HCT-15 colon
NCI-H23 lung = tested on: NCI-H23 lung
MDA-MB-435 = tested on: MDA-MB-435
OVCAR-5 ovarian = tested on: OVCAR-5 ovarian
A549 NSCLC = tested on: A549 NSCLC
SF-268 CNS = tested on: SF-268 CNS
MDA-MB-231 breast = tested on: MDA-MB-231 breast
K-562 leukemia = tested on: K-562 leukemia
NCI-H460 lung = tested on: NCI-H460 lung
HOP-92 NSCLC = tested on: HOP-92 NSCLC
HCC-2998 colon = tested on: HCC-2998 colon
SK-MEL-2 melanoma = tested on: SK-MEL-2 melanoma
TK-10 renal = tested on: TK-10 renal
SNB-75 CNS = tested on: SNB-75 CNS
SK-MEL-5 melanoma = tested on: SK-MEL-5 melanoma
IGROV1 ovarian = tested on: IGROV1 ovarian
EKVX NSCLC = tested on: EKVX NSCLC
HOP-62 NSCLC = tested on: HOP-62 NSCLC
MALME-3M melanoma = tested on: MALME-3M melanoma
NCI-H522 lung = tested on: NCI-H522 lung

NC(=S)N/N=C(/C(=O)Nc1nc2ccc([N+](=O)[O-])cc2s1)C1C(=O)NC(=S)NC1=O
TGI (SNB-19 CNS): > 100 µM
TGI (SK-OV-3 ovarian): > 100 µM
TGI (OVCAR-3 ovarian): > 100 µM
TGI (UO-31 renal): > 100 µM
TGI (CAKI-1 renal): > 100 µM
TGI (SF-539 CNS): > 100 µM
TGI (NCI/ADR-RES ovarian): > 100 µM
TGI (UACC-257 melanoma): > 100 µM
TGI (A498 renal): > 100 µM
TGI (RPMI-8226 leukemia): > 100 µM
TGI (LOX IMVI melanoma): > 100 µM
TGI (U251 CNS): > 100 µM
TGI (T-47D breast): > 100 µM
TGI (MOLT-4 leukemia): > 100 µM
TGI (SK-MEL-28 melanoma): > 100 µM
TGI (SF-295 CNS): > 100 µM
TGI (MCF7 breast): > 100 µM
TGI (M14 melanoma): > 100 µM
TGI (COLO 205 colon): > 100 µM
TGI (SW-620 colon): > 100 µM
TGI (MDA-N): > 100 µM
TGI (RXF 393 renal): > 100 µM
TGI (OVCAR-8 ovarian): > 100 µM
TGI (HCT-116 colon): > 100 µM
TGI (NCI-H226 lung): > 100 µM
TGI (KM12 colon): > 100 µM
TGI (HT29 colon): > 100 µM
TGI (UACC-62 melanoma): > 100 µM
TGI (786-0 renal): > 100 µM
TGI (CCRF-CEM leukemia): > 100 µM
TGI (SN12C renal): > 100 µM
TGI (PC-3 prostate): > 100 µM
TGI (BT-549 breast): > 100 µM
TGI (HL-60(TB) leukemia): > 100 µM
TGI (HS 578T breast): 74.3 µM
TGI (OVCAR-4 ovarian): > 100 µM
TGI (DU-145 prostate): > 100 µM
TGI (SR leukemia): > 100 µM
TGI (ACHN renal): > 100 µM
TGI (HCT-15 colon): > 100 µM
TGI (NCI-H23 lung): > 100 µM
TGI (MDA-MB-435): > 100 µM
TGI (OVCAR-5 ovarian): > 100 µM
TGI (A549 NSCLC): > 100 µM
TGI (SF-268 CNS): > 100 µM
TGI (MDA-MB-231 breast): > 100 µM
TGI (K-562 leukemia): > 100 µM
TGI (NCI-H460 lung): > 100 µM
TGI (HOP-92 NSCLC): > 100 µM
TGI (HCC-2998 colon): > 100 µM
TGI (SK-MEL-2 melanoma): > 100 µM

COC1/C=C\OC2(C)Oc3c(C)c(O)c4c(O)c(c(CN(C)C)c(O)c4c3C2=O)NC(=O)/C(C)=C\C=C/C(C)C(O)C(C)C(O)C(C)C(OC(C)=O)C1C (centres undefined)
TGI (SNB-19 CNS): > 100 µM
TGI (SK-OV-3 ovarian): > 100 µM
TGI (OVCAR-3 ovarian): > 100 µM
TGI (UO-31 renal): > 100 µM
TGI (CAKI-1 renal): > 100 µM
TGI (SF-539 CNS): 45.5 µM
TGI (TK-10 renal): > 100 µM
TGI (NCI/ADR-RES ovarian): > 100 µM
TGI (UACC-257 melanoma): 60.9 µM
TGI (A498 renal): > 100 µM
TGI (RPMI-8226 leukemia): 40 µM
TGI (LOX IMVI melanoma): 35 µM
TGI (U251 CNS): 42.6 µM
TGI (T-47D breast): > 100 µM
TGI (MOLT-4 leukemia): 38.9 µM
TGI (SK-MEL-28 melanoma): 97.5 µM
TGI (SF-295 CNS): > 100 µM
TGI (MCF7 breast): 34.8 µM
TGI (M14 melanoma): 42.1 µM
TGI (COLO 205 colon): 35.4 µM
TGI (SW-620 colon): 75.6 µM
TGI (MDA-N): > 100 µM
TGI (RXF 393 renal): > 100 µM
TGI (OVCAR-8 ovarian): > 100 µM
TGI (HCT-116 colon): 37.9 µM
TGI (NCI-H226 lung): > 100 µM
TGI (KM12 colon): 99.6 µM
TGI (HT29 colon): 54.4 µM
TGI (SNB-75 CNS): > 100 µM
TGI (UACC-62 melanoma): 41.2 µM
TGI (786-0 renal): > 100 µM
TGI (SN12C renal): 83.8 µM
TGI (PC-3 prostate): 72 µM
TGI (BT-549 breast): > 100 µM
TGI (HL-60(TB) leukemia): 50.8 µM
TGI (HS 578T breast): > 100 µM
TGI (SK-MEL-5 melanoma): 36.8 µM
TGI (OVCAR-4 ovarian): > 100 µM
TGI (DU-145 prostate): > 100 µM
TGI (SR leukemia): 43.1 µM
TGI (ACHN renal): > 100 µM
TGI (HCT-15 colon): > 100 µM
TGI (IGROV1 ovarian): > 100 µM
TGI (NCI-H23 lung): 31.3 µM
TGI (MDA-MB-435): 78.6 µM
TGI (EKVX NSCLC): 61.4 µM
TGI (OVCAR-5 ovarian): > 100 µM
TGI (A549 NSCLC): > 100 µM
TGI (SF-268 CNS): > 100 µM
TGI (MDA-MB-231 breast): 92.8 µM
TGI (HOP-62 NSCLC): > 100 µM
TGI (K-562 leukemia): 85.2 µM
TGI (NCI-H460 lung): > 100 µM
TGI (HOP-92 NSCLC): > 100 µM
TGI (MALME-3M melanoma): 39.3 µM
TGI (HCC-2998 colon): 55.8 µM
TGI (NCI-H522 lung): 32.1 µM
TGI (SK-MEL-2 melanoma): 42.5 µM
